Assay [1] relates to HepG2 cells. The assay can be described thus: MTS cell viability assay, HepG2 cells. It is filed as cell-based, Human. The note with it: 48 hours. As to the method:
(§1) Human hepatocellular cancer cell lines, HepG2 (HB-8065, ATCC), Hep3B (HB-8064, ATCC) and HUVEC (CRL-1730) cells are cultured in a growth medium (2 mM L-glutamine, 100 U/ml penicillin, 100 µg/ml streptomycin) of Dulbecco's modified Eagle's medium (DMEM) containing 10% heat inactivated FBS in a humidified atmosphere at 37° C. with 5% CO2. Cells are passaged at 3-day intervals.
(§2) (NaB: B5H10NaO13), Curcumin (Sigma, C1386), and Piperine (Sigma, P49007). At the end of 24, 48 and 72 hours, cell viability were measured. Cell viability assay was performed by 3-(4,5-di-methyl-thiazol-2-yl)-5-(3-carboxy-methoxy-phenyl)-2-(4-sulfo-phenyl)-2H-tetrazolium (MTS) method (CellTiter96 AqueousOne Solution; Promega, Southampton, UK) following the manufacturer's protocol. After 2 hours of incubation time, the cell viability assay is conducted by measuring at 490 nm using an ELISA microplate reader (Bio-tek ELx800, USA). IC50 value for 48 hours was calculated.
(§3) The combination index (CI) is used to determine the degree of drug interaction. The concentration of inhibition in the combination is the sum of the ratio of the dose of each drug to the dose of each drug used alone. […] The formalization is as follows:
(§4) [formula] • (Dx)1, (Dx)2: Individual IC50 values of the substances • (D)1, (D)2: Concentrations of substances in the combination
For orientation: Formazan colour is commonly taken as a measure of viable cells.

Assay [2] concerns Hep3B cells. The assay can be described thus: MTS cell viability assay, Hep3B cells. It is filed as cell-based, Human. The note with it: 48 hours. The method, then:
as §1, §2, §3, §4

In assay [3] the test system is Hep3B cells. To be noted: literature study [20]; cited from earlier work.

As a reminder, the IC50 is the concentration that inhibits the measured activity by half. Regarding `COc1cc(/C=C/C(=O)CC(=O)/C=C/c2ccc(O)c(OC)c2)ccc1O` [curcumin], the IC50 in assay [1] (Homo sapiens) was determined as 44.8 µM; in assay [2] (Homo sapiens), 41.4 µM.
Consider sodium pentaborate pentahydrate, for which the IC50 in assay [1] amounted to 7660 µM; in assay [2], 6560 µM. In assay [3], the “proliferation of Hep3B cells” value is listed as “decreased the proliferation of Hep3B cells”.
For the compound `O=C(/C=C/C=C/c1ccc2c(c1)OCO2)N1CCCCC1` [piperine], the IC50 in assay [1] (Homo sapiens) and in assay [2] (Homo sapiens) was > 150 µM throughout.

The record behind these values is US20250228890A1, “ANTI-CANCER FORMULATION COMPRISING SODIUM PENTABORATE, CURCUMIN AND PIPERINE FOR USE IN THE TREATMENT OF HEPATOCELLULAR CARCINOMA” (Yeditepe Universitesi, priority 2022, published 2025).
